Source: PubChem BioAssay AID2060496 (Molecular Pharmacology Branch, DTP, NCI, 2025)
Several values for one entry are separate records, joined by “and”; a condition that tells them apart may be missing. Equal entries are not always repeated.

Test system: 276233-004-R-J1-PDC complex spheroid viability
Assay: Anticancer human tumor 276233-004-R-J1-PDC patient-derived colon adenocarcinoma cell line growth inhibition [GQUAD]
Details: for viability, T/C: stronger effect = lower value
From the text: DNA G-quadruplex Stabilizer Agents in Combinations in Complex Spheroids
A high-throughput screen of multi-cell type tumor spheroids was designed to identify active combinations of DNA G-quadruplex stabilizer agents and targeted small molecules. Complex spheroids include a stromal component modeled by human endothelial cells (HUVEC) and fibroblasts modeled by human mesenchymal stem cells (MSCs). The concentration ranges selected for each drug and investigational agent were based upon clinically achievable concentrations if the clinical Cmax of the agent was known.
Compounds. The drugs and investigational agents: pidnarulex (CX-5461; NSC782164), APTO-253 (NSC789042), BRACO-19 (NSC847499), peposertib (NSC802822), ceralasertib (NSC780249), elimusertib (NSC800525), camonsertib (NSC841442), AZD-1390 (NSC803789), olaparib (NSC753686), talazoparib (NSC767125), ART-558 (NSC835418), sotorasib (NSC818433), MRTX-1133 (NSC836407), SN-38 (NSC673596), topotecan (NSC609699), etoposide (NSC141540), doxorubicin (NSC123127), gemcitabine (NSC613327), 5-fluorouracil (NSC19893), paclitaxel (NSC125973), vemurafenib (NSC761431), panobinostat (NSC761190), R-306465 (JNJ-16241199; NSC773264), adavosertib (NSC754352), TP-3654 (NSC805149), carboplatin (NSC241240), KSQ-4279 (NSC840948), and staurosporine (NSC755774) were obtained from the National Cancer Institute (NCI) Developmental Therapeutics Program Chemical Repository (34). The FDA-approved anticancer drug set is available from the NCI Developmental Therapeutics Program. […] The stock solutions were prepared in dimethyl sulfoxide (DMSO, Sigma-Aldrich, St. Louis, MO, cat. D2650) at 800-fold the tested concentration and stored at -70 degrees C prior to their use. All drugs and investigational agents were tested over a range starting from a high concentration at or near the clinical Cmax and decreasing in half-log increments. If the clinical Cmax for an agent had not been determined, the highest concentration tested was 10 microM.
2.3 Cell Culture. All cells were maintained in an incubator at 37 degrees C and 5% CO2 with 95% humidity. The PDC lines were cultured according to standard operating procedures established by the NCI PDMR. All PDCs were thawed and cultured in Matrigel-coated flasks prepared with a working solution of 1X Ham's F-12 nutrient mix, without supplementation (Invitrogen, cat. 11765054), 100 U/mL penicillin-streptomycin (Invitrogen, cat. 15140122), and 2.5% Matrigel (Corning Inc., cat. 354248) for the first three passages. The 857933-349-R-J2-PDC line was cultured in 6C/Colon 1B media, which includes advanced DMEM/F-12 (Thermo Fisher Scientific, cat. 12634028), 10 mM HEPES (Thermo Fisher Scientific, cat. 15630080), 1X GlutaMAX supplement (Thermo Fisher Scientific, cat. 35050061), 0.1 mg/mL primocin (InvivoGen, cat. ant-pm-2), 10% defined fetal bovine serum, heat inactivated (HyClone Laboratories Inc., cat. SH30070.03HI), 50% L-WRN conditioned media (ATCC, cat. CRL-3276), 1.25 mM N-Acetyl-L-cysteine (Sigma-Aldrich, cat. A9165), 10 mM nicotinamide (Sigma-Aldrich, cat. N0636), 1X B-27 supplement (Thermo Fisher Scientific, cat. 17504044), 1X N-2 supplement (Thermo Fisher Scientific, cat. 17502048), 10 microM Y-27632 dihydrochloride (Tocris Bioscience, cat. 1254), and 50 ng/mL human EGF recombinant protein (Thermo Fisher Scientific, cat. PHG0311). The 485176-168-R4-J1-PDC line was cultured in Panc media, which includes all 6C/Colon 1B media components plus 100 ng/mL human FGF-10 (Thermo Fisher Scientific, cat. 100-26), 500 nM SB-431542 (Selleckchem, cat. S1067), and gastrin (Tocris, cat. 3006).
[…]

[1] = compound alone, run of 02/20/2024
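Note: spheroids exposed to drugs for seven days.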
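Throughout, for viability, T/C: 100% = DMSO vehicle control viability.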

Structure (SMILES) | viability, T/C (compound 0.0316 µM) | viability, T/C (compound 0.1 µM) | viability, T/C (compound 0.316 µM) | viability, T/C (compound 1 µM) | viability, T/C (compound 3.16 µM) | viability, T/C (compound 10 µM) | IC50 (curve of compound) | IC50 [1] | IC50 (compound alone, run of 02/26/2024) | viability, T/C (compound 0.000999 µM) | viability, T/C (compound 0.00316 µM) | viability, T/C (compound 0.00999 µM) | viability, T/C (compound 0.0999 µM)
COc1cc(C2c3cc4c(cc3C(OC3OC5COC(C)OC5C(O)C3O)C3COC(=O)C23)OCO4)cc(OC)c1O (stereo unspecified) | 94.5% and 86% and 83.5% | 85% and 92% and 84.5% | 88% and 89.3% and 89.8% | 81.9% and 83.7% and 91% | 99% and 101% and 88.6% | 92.4% and 79.9% and 85% | > 10000 nM |  |  |  |  |  | 
COc1ccc([C@@H](O)c2cc(-c3ncnc4cc(N5CCOCC5)ccc34)c(F)cc2Cl)nn1 | 91.6% and 98.8% and 86% | 81% and 98.4% and 55% | 95.6% and 97.8% and 80.1% | 75.1% and 80.2% and 68.1% | 75.5% and 68% and 68.3% | 61.6% and 65.6% and 59.3% | > 10000 nM |  |  |  |  |  | 
COc1cccc2c1C(=O)c1c(O)c3c(c(O)c1C2=O)CC(O)(C(=O)CO)CC3OC1CC(N)C(O)C(C)O1 (stereo unspecified) | 90.2% and 99.5% and 87% | 90.8% and 78.6% and 69.9% | 84.7% and 99.6% and 86.4% | 67.4% and 66.3% and 80.7% | 49.4% and 58.4% and 58.3% | 44.2% and 70.7% and 49.6% | 3040 nM and > 10000 nM and 9440 nM |  |  |  |  |  | 
COc1ncnc(C2CC2)c1-c1ncc2cnn(Cc3ccc(-c4nc(C(F)(F)F)cn4C(C)C)cc3)c2n1 | 86% and 85.2% and 92% | 69% and 77.1% and 72.8% | 84.5% and 105% and 85.5% | 82% and 82.4% and 85.8% | 94.6% and 92.9% and 82.1% | 98% and 75.9% and 97.7% | > 10000 nM |  |  |  |  |  | 
Cc1[nH]c2ccc(F)cc2c1-c1nc2c3cccnc3c3ncccc3c2[nH]1 |  |  | 80.8% [middle of 12 runs] | 73.4% [middle of 12 runs] |  | 44.4% [middle of 12 runs] |  | 2.51 µM [middle of 8 runs] | 1.35 µM [middle of 4 runs] |  |  |  | 
Cc1[nH]c2ccccc2c1CCNCc1ccc(/C=C/C(=O)NO)cc1 | 80.3% and 84% and 82.8% |  | 19.3% and 31.7% and 41.9% |  |  |  | 178 nM and 155 nM and 257 nM |  |  | 86.2% and 100% and 95.1% | 71% and 96.2% and 83.8% | 96.1% and 81.2% and 98.1% | 80.9% and 60.8% and 86.1%
Cc1cccc(N(C)C(=O)C2C(O)CCN2c2nc(C)cc(C(F)(F)F)c2C#N)c1 (stereo unspecified) | 92.6% and 89.1% and 85.7% | 69.5% and 106% and 83.8% | 74.5% and 101% and 74.6% | 94% and 109% and 85.7% | 99.6% and 74.3% and 84.3% | 111% and 91.5% and 99.2% | > 10000 nM |  |  |  |  |  | 
Cc1cnc(CNC(=O)c2c(=O)c3ccc(N4CCCN(C)CC4)nc3n3c2sc2ccccc23)cn1 |  |  |  | 85.5% [middle of 12 runs] | 74.2% [middle of 12 runs] | 68.8% [middle of 12 runs] |  | > 10000 nM |  |  |  |  | 
Cn1ncnc1[C@H]1c2n[nH]c(=O)c3cc(F)cc(c23)N[C@@H]1c1ccc(F)cc1 | 80% and 83.1% and 87.4% |  | 102% and 89.6% and 80.9% |  |  |  | > 316 nM |  |  | 108% and 94.2% and 85.9% | 84.1% and 111% and 82.8% | 97.9% and 83.5% and 81.7% | 108% and 84.9% and 87.8%
Nc1ccn(C2OC(CO)C(O)C2(F)F)c(=O)n1 (stereo unspecified) | 86.2% and 88.9% and 100% | 76.2% and 97% and 92.5% | 76.6% and 97.1% and 85.7% | 69% and 83.3% and 72.7% | 83.3% and 79% and 97.7% | 71.6% and 68.4% and 75.5% | > 10000 nM |  |  |  |  |  | 
O=C(NO)c1cnc(N2CCN(S(=O)(=O)c3ccc4ccccc4c3)CC2)nc1 | 87% and 88.3% and 112% | 108% and 125% and 89% | 68.1% and 77.6% and 63.9% | 1.97% and 0.86% and 8.3% | 0.67% and 0.79% and 4.97% | 1.35% and 1.12% and 3.62% | 432 nM and 479 nM and 397 nM |  |  |  |  |  | 
O=C(c1cc(Cc2n[nH]c(=O)c3ccccc23)ccc1F)N1CCN(C(=O)C2CC2)CC1 | 98.7% and 82% and 96.7% | 74.7% and 85.1% and 87.7% | 99.8% and 90.6% and 79% | 93.7% and 103% and 84.8% | 82.7% and 91.9% and 88% | 94.1% and 79.9% and 97.9% | > 10000 nM |  |  |  |  |  | 
O=c1[nH]cc(F)c(=O)[nH]1 | 98.2% and 108% and 102% | 71.6% and 81.3% and 94.7% | 89.2% and 90.9% and 103% | 88.4% and 88.3% and 106% | 84.1% and 90.3% and 83.7% | 101% and 97.9% and 113% | > 10000 nM |  |  |  |  |  | 
